In patent US10100097B2, “GIP-GLP-1 dual agonist compounds and methods” (Zealand Pharma A/S, priority 2012, dated 2018) one finds EC50 data, which are given here for seven molecules.

Assay [1] addresses T1, human GIP R (Homo sapiens, UniProt P48546).
T1 construct: expressed in transfected cells
T1 sequence (P48546 22-466): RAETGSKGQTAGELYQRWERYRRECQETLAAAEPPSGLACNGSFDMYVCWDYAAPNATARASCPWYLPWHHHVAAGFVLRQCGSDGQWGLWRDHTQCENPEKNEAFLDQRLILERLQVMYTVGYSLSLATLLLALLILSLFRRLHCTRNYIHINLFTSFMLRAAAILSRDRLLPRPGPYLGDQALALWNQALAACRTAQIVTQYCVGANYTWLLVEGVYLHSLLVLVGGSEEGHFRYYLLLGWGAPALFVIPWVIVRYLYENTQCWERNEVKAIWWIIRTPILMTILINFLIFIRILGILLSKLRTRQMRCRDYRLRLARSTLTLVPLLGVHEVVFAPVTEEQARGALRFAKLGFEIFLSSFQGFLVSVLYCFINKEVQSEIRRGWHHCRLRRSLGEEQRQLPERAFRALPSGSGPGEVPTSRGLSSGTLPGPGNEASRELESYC
Nature of the assay: Human GIP receptor (GIP R) activity assay, cAMP induction (AlphaScreen cAMP kit). It is filed as cell-based. On the procedure: (§1) Human GIP Receptor (GIP R) and GLP-1 Receptor (GLP-1 R) Activity Assay
(§2) In vitro effects of peptide conjugates of the invention were assessed by measuring the induction of cAMP following stimulation of the respective receptor by GIP, GLP1 or analogues of these, as outlined in the invention, using the AlphaSceen® cAMP kit from Perkin-Elmer according to instructions. Briefly. HEK293 cells expressing the human GIP R or GLP-1 R (stable cell lines generated through transfection of the cDNA for human GIP R or GLP-1 and selection of stable clones) were seeded at 30,000 cells/well in 96-well microtiter plates coated with 0.01% poly-L-lysine, and grown for 1 day in culture in 200 μl growth medium (DMEM, 10% FCS, Penicillin (100 IU/ml), Streptomycin (100 μg/ml)). On the day of analysis, growth medium was removed and the cells were washed once with […] Tyrode's buffer (Tyrode's Salts (9.6 g/1), 10 mM HEPES, pH 7.4). […] The Assay buffer was removed and cells are lysed in 80 μl Lysis buffer (0.1% w/v BSA, 5 mM HEPES, 0.3% v/v Tween-20) per well. From each well 10 μl lysed cells was transferred to a 384-well plate and mixed with 15 μl bead-mix (1 Unit/15 μl anti-cAMP Acceptor Beads, 1 Unit/15 μl Donor Beads, and 1 Unit/15 μl Biotinylated cAMP in Assay Buffer). The plates were mixed and incubated in the dark for an hour at room temperature before measuring using an Envision™ plate reader (Perkin-Elmer).
(Bead proximity is the source of the signal in Alpha formats.)

Assay [2] deals with T2, human GLP-1 R (Homo sapiens, UniProt P43220).
T2 construct: expressed in transfected cells
T2 sequence (P43220 24-463): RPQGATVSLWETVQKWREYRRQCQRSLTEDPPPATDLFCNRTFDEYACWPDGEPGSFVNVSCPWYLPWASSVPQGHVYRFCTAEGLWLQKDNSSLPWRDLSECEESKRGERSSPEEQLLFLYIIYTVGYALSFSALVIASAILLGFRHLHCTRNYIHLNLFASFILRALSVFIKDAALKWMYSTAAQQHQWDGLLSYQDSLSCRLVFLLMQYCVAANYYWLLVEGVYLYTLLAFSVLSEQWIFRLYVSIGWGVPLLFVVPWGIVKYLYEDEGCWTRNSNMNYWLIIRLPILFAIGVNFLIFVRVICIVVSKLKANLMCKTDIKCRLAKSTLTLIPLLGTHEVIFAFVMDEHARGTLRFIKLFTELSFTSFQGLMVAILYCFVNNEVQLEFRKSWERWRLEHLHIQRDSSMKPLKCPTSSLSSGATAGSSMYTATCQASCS
The assay is described as follows: Human GLP-1 receptor (GLP-1 R) activity assay, cAMP induction (AlphaScreen cAMP kit). The assay is classed as cell-based. The settings on record: HEK293 cells expressing the human GLP-1 R, 15 min at 37° C., average values of multiple determinations, read-out: GLP1 R (EC50 in nM). The protocol:
as §1, §2

The mark [3] stands for this setting: HEK293 cells expressing the human GIP R, cAMP induction, 15 min at 37° C., average values of multiple determinations, read-out: GIP R (EC50 in nM).

Like-named read-outs stand apart in the source and are kept apart here. Numbered stars: 1 amine (or outer) side, 2 acyl side, 3 side chain; on linkers, the order of the positions; unused ones are H or OH. Square brackets hold non-standard residues; d marks the D form. Side chains are listed from the residue outwards. Peptide text beside a SMILES is read from it. * marks the point of attachment. γGlu = O=C(O)[C@H](CCC(=O)[*:2])N[*:1]; Palmitoyl = CCCCCCCCCCCCCCCC(=O)*; Aib = CC(C)(N)C(=O)O

Turning to `CC[C@H](C)[C@H](NC(=O)[C@H](CCCCN)NC(=O)[C@H](CCC(=O)O)NC(=O)[C@H](CC(C)C)NC(=O)[C@H](Cc1ccc(O)cc1)NC(=O)[C@@H](NC(=O)[C@H](CO)NC(=O)[C@H](Cc1ccc(O)cc1)NC(=O)[C@H](CC(=O)O)NC(=O)[C@H](CO)NC(=O)[C@@H](NC(=O)[C@H](Cc1ccccc1)NC(=O)[C@@H](NC(=O)CNC(=O)[C@H](CCC(=O)O)NC(=O)C(C)(C)NC(=O)[C@@H](N)Cc1ccc(O)cc1)[C@@H](C)O)[C@@H](C)CC)[C@@H](C)CC)C(=O)N[C@@H](C)C(=O)N[C@@H](C)C(=O)N[C@@H](CCCCN)C(=O)N[C@@H](CCC(=O)O)C(=O)N[C@@H](Cc1ccccc1)C(=O)N[C@H](C(=O)N[C@@H](CC(N)=O)C(=O)N[C@@H](Cc1c[nH]c2ccccc12)C(=O)N[C@@H](CC(C)C)C(=O)N[C@@H](CC(C)C)C(=O)N[C@@H](C)C(=O)N[C@@H](CCC(N)=O)C(=O)N[C@@H](CCCCN)C(N)=O)C(C)C` [Compound 4] (H-Y[Aib]EGTFISDYSIYLEKIAAKEFVNWLLAQK-NH2), in assay [1], the EC50 was 0.022 nM.

Regarding `CC[C@H](C)[C@H](NC(=O)[C@H](CO)NC(=O)[C@H](Cc1ccc(O)cc1)NC(=O)[C@H](CC(=O)O)NC(=O)[C@H](CO)NC(=O)[C@@H](NC(=O)[C@H](Cc1ccccc1)NC(=O)[C@@H](NC(=O)CNC(=O)[C@H](CCC(=O)O)NC(=O)C(C)(C)NC(=O)[C@@H](N)Cc1ccc(O)cc1)[C@@H](C)O)[C@@H](C)O)C(=O)N[C@@H](Cc1ccc(O)cc1)C(=O)N[C@@H](CC(C)C)C(=O)N[C@@H](CC(=O)O)C(=O)N[C@@H](CCCCN)C(=O)N[C@@H](CCCCN)C(=O)N[C@@H](C)C(=O)N[C@@H](CCC(N)=O)C(=O)N[C@@H](CCCCN)C(=O)N[C@@H](CCC(=O)O)C(=O)N[C@@H](Cc1ccccc1)C(=O)N[C@H](C(=O)N[C@@H](CC(N)=O)C(=O)N[C@@H](Cc1c[nH]c2ccccc12)C(=O)N[C@@H](CC(C)C)C(=O)N[C@@H](CC(C)C)C(=O)N[C@@H](C)C(=O)NC(C)(C)C(=O)N[C@@H](CCCCN)C(N)=O)C(C)C` [Compound 19] (H-Y[Aib]EGTFTSDYSIYLDKKAQKEFVNWLLA[Aib]K-NH2), in assay [1] (setting [3]), the EC50 was determined as 0.015 nM.

As for `CC[C@H](C)[C@H](NC(=O)[C@H](CO)NC(=O)[C@H](Cc1ccc(O)cc1)NC(=O)[C@H](CC(=O)O)NC(=O)[C@H](CO)NC(=O)[C@@H](NC(=O)[C@H](Cc1ccccc1)NC(=O)[C@@H](NC(=O)CNC(=O)[C@H](CCC(=O)O)NC(=O)C(C)(C)NC(=O)[C@@H](N)Cc1ccc(O)cc1)[C@@H](C)O)[C@@H](C)O)C(=O)N[C@@H](Cc1ccc(O)cc1)C(=O)N[C@@H](CC(C)C)C(=O)N[C@@H](CC(=O)O)C(=O)N[C@@H](CCCCN)C(=O)N[C@@H](CCCCN)C(=O)N[C@@H](C)C(=O)N[C@@H](CCC(N)=O)C(=O)N[C@@H](CCCNC(=N)N)C(=O)N[C@@H](C)C(=O)N[C@@H](Cc1ccccc1)C(=O)N[C@H](C(=O)N[C@@H](CC(N)=O)C(=O)N[C@@H](Cc1c[nH]c2ccccc12)C(=O)N[C@@H](CC(C)C)C(=O)N[C@@H](CC(C)C)C(=O)NC(C)(C)C(=O)N[C@@H](CCCCN)C(N)=O)C(C)C` [Compound 24] (H-Y[Aib]EGTFTSDYSIYLDKKAQRAFVNWLL[Aib]K-NH2), the EC50 in assay [1] (setting [3]) was 0.096 nM.

Take `CC[C@H](C)[C@H](NC(=O)[C@H](CO)NC(=O)[C@H](Cc1ccc(O)cc1)NC(=O)[C@H](CC(=O)O)NC(=O)[C@H](CO)NC(=O)[C@@H](NC(=O)[C@H](Cc1ccccc1)NC(=O)[C@@H](NC(=O)CNC(=O)[C@H](CCC(=O)O)NC(=O)C(C)(C)NC(=O)[C@@H](N)Cc1ccc(O)cc1)[C@@H](C)O)[C@@H](C)O)C(=O)N[C@@H](Cc1ccc(O)cc1)C(=O)N[C@@H](CC(C)C)C(=O)N[C@@H](CC(=O)O)C(=O)N[C@@H](CCCCN)C(=O)N[C@@H](CCCCN)C(=O)N[C@@H](C)C(=O)N[C@@H](CCC(N)=O)C(=O)N[C@@H](CCCNC(=N)N)C(=O)N[C@@H](C)C(=O)N[C@@H](Cc1ccccc1)C(=O)N[C@H](C(=O)N[C@@H](CC(N)=O)C(=O)N[C@@H](Cc1c[nH]c2ccccc12)C(=O)N[C@@H](CC(C)C)C(=O)N[C@H](C(=O)N[C@@H](C)C(=O)NC(C)(C)C(=O)N[C@@H](CCCCN)C(N)=O)C(C)C)C(C)C` [Compound 21] (H-Y[Aib]EGTFTSDYSIYLDKKAQRAFVNWLVA[Aib]K-NH2): the EC50 in assay [2] is 0.009 nM.

`CC[C@H](C)[C@H](NC(=O)[C@H](CO)NC(=O)[C@H](Cc1ccc(O)cc1)NC(=O)[C@H](CC(=O)O)NC(=O)[C@H](CO)NC(=O)[C@@H](NC(=O)[C@H](Cc1ccccc1)NC(=O)[C@@H](NC(=O)CNC(=O)[C@H](CCC(=O)O)NC(=O)C(C)(C)NC(=O)[C@@H](N)Cc1ccc(O)cc1)[C@@H](C)O)[C@@H](C)O)C(=O)N[C@@H](C)C(=O)N[C@@H](CC(C)C)C(=O)N[C@@H](CCC(=O)O)C(=O)N[C@@H](CCCCN)C(=O)N[C@@H](CCCCN)C(=O)N[C@@H](C)C(=O)N[C@@H](CCC(N)=O)C(=O)N[C@@H](CCCNC(=N)N)C(=O)N[C@@H](C)C(=O)N[C@@H](Cc1ccccc1)C(=O)N[C@H](C(=O)N[C@@H](CC(N)=O)C(=O)N[C@@H](Cc1c[nH]c2ccccc12)C(=O)N[C@@H](CC(C)C)C(=O)N[C@@H](CC(C)C)C(=O)N[C@@H](C)C(=O)NC(C)(C)C(=O)N[C@@H](CCCCN)C(N)=O)C(C)C` [Compound 15] (H-Y[Aib]EGTFTSDYSIALEKKAQRAFVNWLLA[Aib]K-NH2): in assay [2], the EC50 worked out at 0.01 nM.

Take `CCCCCCCCCCCCCCCC(=O)N[C@@H](CCC(=O)NCCCC[C@H](NC(=O)[C@H](CCC(=O)O)NC(=O)[C@H](CC(=O)O)NC(=O)[C@H](CC(C)C)NC(=O)[C@H](Cc1ccc(O)cc1)NC(=O)[C@@H](NC(=O)[C@H](CO)NC(=O)[C@H](Cc1ccc(O)cc1)NC(=O)[C@H](CC(=O)O)NC(=O)[C@H](CO)NC(=O)[C@@H](NC(=O)[C@H](Cc1ccccc1)NC(=O)[C@@H](NC(=O)CNC(=O)[C@H](CCC(=O)O)NC(=O)C(C)(C)NC(=O)[C@@H](N)Cc1ccc(O)cc1)[C@@H](C)O)[C@@H](C)O)[C@@H](C)CC)C(=O)N[C@@H](C)C(=O)N[C@@H](C)C(=O)N[C@@H](CCCCN)C(=O)N[C@@H](CCC(=O)O)C(=O)N[C@@H](Cc1ccccc1)C(=O)N[C@H](C(=O)N[C@@H](CCC(=O)O)C(=O)N[C@@H](Cc1c[nH]c2ccccc12)C(=O)N[C@@H](CC(C)C)C(=O)N[C@@H](CCC(=O)O)C(=O)N[C@@H](CO)C(=O)N[C@@H](C)C(N)=O)[C@@H](C)CC)C(=O)O` [Compound 34] (H-Y[Aib]EGTFTSDYSIYLDEK([γGlu-Palmitoyl])AAKEFIEWLESA-NH2): the EC50 in assay [2] came out at 0.031 nM.

Consider `CCCCCCCCCCCCCCCC(=O)N[C@@H](CCC(=O)NCCCC[C@H](NC(=O)[C@H](CCCCN)NC(=O)[C@H](CC(=O)O)NC(=O)[C@H](CC(C)C)NC(=O)[C@H](Cc1ccc(O)cc1)NC(=O)[C@@H](NC(=O)[C@H](CO)NC(=O)[C@H](Cc1ccc(O)cc1)NC(=O)[C@H](CC(=O)O)NC(=O)[C@H](CO)NC(=O)[C@@H](NC(=O)[C@H](Cc1ccccc1)NC(=O)[C@@H](NC(=O)CNC(=O)[C@H](CCC(=O)O)NC(=O)C(C)(C)NC(=O)[C@@H](N)Cc1ccc(O)cc1)[C@@H](C)O)[C@@H](C)O)[C@@H](C)CC)C(=O)N[C@@H](C)C(=O)N[C@@H](CCC(N)=O)C(=O)N[C@@H](CCCNC(=N)N)C(=O)N[C@@H](C)C(=O)N[C@@H](Cc1ccccc1)C(=O)N[C@H](C(=O)N[C@@H](CC(N)=O)C(=O)N[C@@H](Cc1c[nH]c2ccccc12)C(=O)N[C@@H](CC(C)C)C(=O)N[C@@H](CC(C)C)C(=O)N[C@@H](C)C(=O)NC(C)(C)C(=O)N[C@@H](CCCCN)C(=O)N1CCC[C@H]1C(=O)N[C@@H](CO)C(=O)N[C@@H](CO)C(=O)NCC(=O)N[C@@H](C)C(=O)N1CCC[C@H]1C(=O)N1CCC[C@H]1C(=O)N1CCC[C@H]1C(=O)N[C@@H](CO)C(N)=O)C(C)C)C(=O)O` [Compound 35], for which the half-maximal effective concentration (EC50) in assay [2] turned out to be 0.022 nM.

A word on the EC50: it is the concentration that produces a half-maximal response.
